According to ChEMBL document CHEMBL5131541, “Structural Feature Analyzation Strategies toward Discovery of Orally Bioavailable PROTACs of Bruton's Tyrosine Kinase for the Treatment of Lymphoma” (J Med Chem, 2022):

Experiments:
[1] = target: T1, Tyrosine-protein kinase BTK (Homo sapiens, UniProt Q06187); test: Induction of BTK degradation in human MINO cells incubated for 24 hrs by Western blot; format: cell-based; conditions: dose 1-1000 nM, DDE = dose-dependent effect
[2] = target: T1, Tyrosine-protein kinase BTK; test: Induction of BTK degradation in human MINO cells at 1000 nM incubated for 24 hrs by Western blot; format: cell-based
[3] = target: T1, Tyrosine-protein kinase BTK; test: Inhibition of BTK (unknown origin)
JeKo-1 [4] = test: cells; conditions: Homo sapiens
JeKo-1 [5] = test: cells; conditions: Homo sapiens; remark: listed apart in the source
[6] = AUC (0 to t) in Sprague-Dawley rat at 5 to 10 mg/kg, po administered as cassette dose measured upto 24 hrs by LC-MS analysis; format: ADME, organism-based; design: time < 24 hrs, route po; conditions: in vivo, dose 5-10 mg/kg
[7] = Tmax in Sprague-Dawley rat at 5 to 10 mg/kg, po administered as cassette dose measured upto 24 hrs by LC-MS analysis; format: ADME, organism-based; conditions: in vivo, dose 5-10 mg/kg
[8] = Half life in Sprague-Dawley rat at 5 to 10 mg/kg, po administered as cassette dose measured upto 24 hrs by LC-MS analysis; format: ADME, organism-based; conditions: in vivo, dose 5-10 mg/kg
[9] = Dose normalized AUC (0 to t) in Sprague-Dawley rat at 5 to 10 mg/kg, po administered as cassette dose measured upto 24 hrs by LC-MS analysis; format: ADME, organism-based; conditions: in vivo, dose 5-10 mg/kg
[10] = Cmax in Sprague-Dawley rat at 5 to 10 mg/kg, po administered as cassette dose measured upto 24 hrs by LC-MS analysis; format: ADME, organism-based; design: time < 24 hrs, route po; conditions: in vivo, dose 5-10 mg/kg
OCI-Ly10 [11] = test: Antitumor activity against human OCILY10 cells xenografted in SCID mouse assessed as tumor growth inhibition at 10 mg/kg, po qd measured after 17 days relative to control; format: functional; design: scale not given: the % may be the effect or the level left; conditions: time 17 day
[12] = AUC (0 to t) in Sprague-Dawley rat at 10 mg/kg, po administered as cassette dose measured upto 24 hrs by LC-MS analysis; format: ADME, organism-based; design: dose 10 mg/kg, time < 24 hrs, route po; conditions: in vivo
[13] = Cmax in ICR mouse at 20 mg/kg, po administered as single dose measured upto 48 hrs by LC-MS analysis; format: ADME, organism-based; design: dose 20 mg/kg, time < 48 hrs, route po; conditions: in vivo
MM1.S = test: cells; conditions: Homo sapiens
[14] = Tmax in Sprague-Dawley rat at 10 mg/kg, po administered as cassette dose measured upto 24 hrs by LC-MS analysis; format: ADME, organism-based; conditions: in vivo
[15] = Cmax in Sprague-Dawley rat at 10 mg/kg, po administered as cassette dose measured upto 24 hrs by LC-MS analysis; format: ADME, organism-based; design: time < 24 hrs, dose 10 mg/kg, route po; conditions: in vivo
OCI-Ly10 [16] = test: cells; conditions: Homo sapiens
[17] = AUC (0 to infinity) in ICR mouse at 20 mg/kg, po administered as single dose measured upto 48 hrs by LC-MS analysis; format: ADME, organism-based; design: dose 20 mg/kg, time < 48 hrs, route po; conditions: in vivo
[18] = Tmax in ICR mouse at 20 mg/kg, po administered as single dose measured upto 48 hrs by LC-MS analysis; format: ADME, organism-based; conditions: in vivo
[19] = target: T1, Tyrosine-protein kinase BTK; test: Induction of BTK degradation in human MINO cells incubated for 24 hrs by Western blot analysis; format: cell-based; conditions: dose 1-1000 nM, DDE = dose-dependent effect
TMD8 = test: cells; conditions: Homo sapiens
[20] = target: Tyrosine-protein kinase BTK (Mus musculus) (UniProt P35991); test: In vivo induction of BTK degradation in ICR mouse monocytes at 20 mg/kg, po after 8 hrs by Western blot analysis relative to control; format: functional, organism-based; conditions: Monocyte
Tyrosine-protein kinase BTK (Mus musculus), sequence (P35991 whole entry): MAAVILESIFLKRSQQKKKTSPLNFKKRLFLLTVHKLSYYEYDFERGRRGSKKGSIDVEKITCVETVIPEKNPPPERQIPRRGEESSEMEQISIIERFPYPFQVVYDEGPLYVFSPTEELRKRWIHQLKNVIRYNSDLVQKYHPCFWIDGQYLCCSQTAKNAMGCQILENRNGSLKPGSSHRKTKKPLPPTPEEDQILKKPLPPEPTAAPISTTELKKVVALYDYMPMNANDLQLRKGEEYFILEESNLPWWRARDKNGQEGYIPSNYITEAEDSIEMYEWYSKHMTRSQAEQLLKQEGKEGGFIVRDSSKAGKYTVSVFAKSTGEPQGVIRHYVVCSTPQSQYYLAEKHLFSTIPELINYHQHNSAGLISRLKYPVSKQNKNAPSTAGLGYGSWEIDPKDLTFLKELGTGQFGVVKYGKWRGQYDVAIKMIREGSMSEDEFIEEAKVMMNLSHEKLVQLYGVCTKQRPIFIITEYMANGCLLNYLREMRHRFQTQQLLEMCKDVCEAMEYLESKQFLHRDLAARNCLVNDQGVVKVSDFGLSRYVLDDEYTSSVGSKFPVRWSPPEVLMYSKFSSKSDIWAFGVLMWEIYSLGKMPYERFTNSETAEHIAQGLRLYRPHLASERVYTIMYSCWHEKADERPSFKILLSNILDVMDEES

[21] = Half life in ICR mouse at 20 mg/kg, po administered as single dose measured upto 48 hrs by LC-MS analysis; format: ADME, organism-based; conditions: in vivo
[22] = Half life in Sprague-Dawley rat at 10 mg/kg, po administered as cassette dose measured upto 24 hrs by LC-MS analysis; format: ADME, organism-based; conditions: in vivo
[23] = Dose normalized AUC (0 to t) in Sprague-Dawley rat at 10 mg/kg, po administered as cassette dose measured upto 24 hrs by LC-MS analysis; format: ADME, organism-based; conditions: in vivo
cells = conditions: Homo sapiens, MINO
[24] = AUC (0 to t) in ICR mouse at 20 mg/kg, po administered as single dose measured upto 48 hrs by LC-MS analysis; format: ADME, organism-based; design: dose 20 mg/kg, time < 48 hrs, route po; conditions: in vivo
[25] = AUC (0 to infinity) in ICR mouse at 100 mg/kg, po measured upto 48 hrs by LC/MS analysis; format: ADME, organism-based; design: time < 48 hrs, dose 100 mg/kg, route po; conditions: in vivo
[26] = Tmax in ICR mouse at 100 mg/kg, po measured upto 48 hrs by LC/MS analysis; format: ADME, organism-based; conditions: in vivo
[27] = Cmax in ICR mouse at 100 mg/kg, po measured upto 48 hrs by LC/MS analysis; format: ADME, organism-based; design: dose 100 mg/kg, time < 48 hrs, route po; conditions: in vivo
[28] = Half life in ICR mouse at 100 mg/kg, po measured upto 48 hrs by LC/MS analysis; format: ADME, organism-based; conditions: in vivo
[29] = AUC (0 to t) in ICR mouse at 100 mg/kg, po measured upto 48 hrs by LC/MS analysis; format: ADME, organism-based; design: time < 48 hrs, dose 100 mg/kg, route po; conditions: in vivo

T1 sequence (Q06187 whole entry): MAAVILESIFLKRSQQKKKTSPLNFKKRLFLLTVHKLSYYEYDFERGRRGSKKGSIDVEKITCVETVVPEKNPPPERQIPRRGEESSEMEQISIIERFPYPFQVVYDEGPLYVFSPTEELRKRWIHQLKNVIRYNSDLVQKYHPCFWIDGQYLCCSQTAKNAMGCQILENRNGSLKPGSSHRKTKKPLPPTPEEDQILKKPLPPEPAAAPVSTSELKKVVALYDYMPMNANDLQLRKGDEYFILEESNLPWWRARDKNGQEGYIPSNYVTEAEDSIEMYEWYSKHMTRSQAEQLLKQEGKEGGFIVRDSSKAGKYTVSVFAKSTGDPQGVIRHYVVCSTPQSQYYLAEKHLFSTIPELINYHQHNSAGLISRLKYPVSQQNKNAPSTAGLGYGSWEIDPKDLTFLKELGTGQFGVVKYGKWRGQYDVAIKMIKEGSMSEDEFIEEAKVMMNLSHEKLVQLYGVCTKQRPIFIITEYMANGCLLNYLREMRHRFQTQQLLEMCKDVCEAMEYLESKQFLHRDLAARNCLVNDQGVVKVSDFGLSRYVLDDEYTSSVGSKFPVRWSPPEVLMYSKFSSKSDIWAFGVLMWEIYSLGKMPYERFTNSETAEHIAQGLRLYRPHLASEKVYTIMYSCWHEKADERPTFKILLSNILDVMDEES

Activity [1] | IC50 [3] [nM] | IC50 (JeKo-1 [4]) [nM] | IC50 (JeKo-1 [5]) [nM] | AUC(0-t) at 24 h [6] [ng·h/mL] | Tmax [7] [min] | half-life [8] [min] | AUCt/dose [9] [ng·h/mL/mg] | Cmax [10] [ng/mL] | Structure (SMILES) | further results
Dde | 9 |  |  |  |  |  |  |  | Nc1ncnc2c1c(-c1ccc(Oc3ccccc3)cc1)nn2[C@@H]1CCCN(C(=O)CCCC(=O)NCC#CCN2CCN(CC#Cc3ccc4c(c3)CN(C3CCC(=O)NC3=O)C4=O)CC2)C1 (stereo partly specified) | Activity [2]: > 50%
Dde | 9 | 4960 | 296 |  |  |  |  |  | Nc1ncnc2c1c(-c1ccc(Oc3ccccc3)cc1)nn2[C@@H]1CCCN(C(=O)/C=C/C(=O)N2CCN(CC#Cc3ccc4c(c3)CN(C3CCC(=O)NC3=O)C4=O)CC2)C1 (stereo partly specified) | 
Dde | 9 |  |  | 112 | 30 | 90 | 11 | 69 | Nc1ncnc2c1c(-c1ccc(Oc3ccccc3)cc1)nn2[C@@H]1CCCN(C(=O)[C@H]2CC[C@H](C(=O)NCC#CCN3CCN(CC#Cc4ccc5c(c4)CN(C4CCC(=O)NC4=O)C5=O)CC3)CC2)C1 (stereo partly specified) | 
Dde | 9 |  |  | 58 | 30 | 120 | 6 | 29 | Nc1ncnc2c1c(-c1ccc(Oc3ccccc3)cc1)nn2[C@@H]1CCCN(C(=O)[C@H]2CCCC[C@H]2C(=O)N2CCN(CC#Cc3ccc4c(c3)CN(C3CCC(=O)NC3=O)C4=O)CC2)C1 (stereo partly specified) | 
 |  |  |  |  |  |  |  |  | C=CC(=O)N1CCC[C@@H](n2nc(-c3ccc(Oc4ccccc4)cc3)c3c(N)ncnc32)C1 [IBRUTINIB] | Activity (OCI-Ly10 [11]): 50.7%
Dde | 9 |  |  | 145 | 18 | 102 | 15 | 77 | Nc1ncnc2c1c(-c1ccc(Oc3ccccc3)cc1)nn2[C@@H]1CCCN(C(=O)C2(C(=O)NCC#CCN3CCN(CC#Cc4ccc5c(c4)CN(C4CCC(=O)NC4=O)C5=O)CC3)CC2)C1 (stereo partly specified) | 
Dde | 9 |  |  |  |  |  |  |  | Nc1ncnc2c1c(-c1ccc(Oc3ccccc3)cc1)nn2[C@@H]1CCCN(C(=O)CCCCC(=O)NCC#CCN2CCN(CC#Cc3ccc4c(c3)CN(C3CCC(=O)NC3=O)C4=O)CC2)C1 (stereo partly specified) | 
Dde | 9 |  |  | 2530 | 54 | 138 | 253 | 782 | Nc1ncnc2c1c(-c1ccc(Oc3ccccc3)cc1)nn2[C@@H]1CCCN(C(=O)C2(C(=O)N3CCN(CC#Cc4ccc5c(c4)CN(C4CCC(=O)NC4=O)C5=O)CC3)CC2)C1 (stereo partly specified) | 
 | 24.4 | 20000 | 6570 |  |  |  |  |  | Nc1ncnc2c1c(-c1ccc(Oc3ccccc3)cc1)nn2[C@@H]1CCCN(C(=O)CC(=O)NCC#CCN2CCN(CC#Cc3ccc4c(c3)CN(C3CCC(=O)NC3=O)C4=O)CC2)C1 (stereo partly specified) | AUC(0-t) at 24 h [12]: 21.5 ng·h/mL; Cmax [13]: 20 ng/mL; IC50 (MM1.S): > 20000 nM; Tmax [14]: 42 min; Cmax [15]: 461 ng/mL; IC50 (OCI-Ly10 [16]): 40.2 nM; AUC(0-inf) [17]: 55 ng·h/mL; Tmax [18]: 18 min; Activity [19]: Dde; IC50 (TMD8): 106 nM; Activity [20]: 16.5%; half-life [21]: 318 min; half-life [22]: 474 min; AUCt/dose [23]: 215 ng·h/mL/mg; IC50 (cells): 800 nM; AUC(0-t) at 48 h [24]: 39 ng·h/mL
Dde | 9 | > 20000 | 792 | 247 | 36 | 84 | 25 | 125 | Nc1ncnc2c1c(-c1ccc(Oc3ccccc3)cc1)nn2[C@@H]1CCCN(C(=O)[C@H]2CCCC[C@H]2C(=O)NCC#CCN2CCN(CC#Cc3ccc4c(c3)CN(C3CCC(=O)NC3=O)C4=O)CC2)C1 (stereo partly specified) | AUC(0-inf) [25]: 81 ng·h/mL; Tmax [26]: 42 min; Cmax [27]: 52 ng/mL; half-life [28]: 60 min; AUC(0-t) at 48 h [29]: 62 ng·h/mL
Dde | 9 | > 20000 | 1940 | 24 | 36 | 48 | 2 | 16 | Nc1ncnc2c1c(-c1ccc(Oc3ccccc3)cc1)nn2[C@@H]1CCCN(C(=O)[C@H]2CC[C@H](C(=O)N3CCN(CC#Cc4ccc5c(c4)CN(C4CCC(=O)NC4=O)C5=O)CC3)CC2)C1 (stereo partly specified) | 
Dde | 9 |  |  | 20 | 36 | 90 | 2 | 15 | Nc1ncnc2c1c(-c1ccc(Oc3ccccc3)cc1)nn2[C@@H]1CCCN(C(=O)/C=C/C(=O)NCC#CCN2CCN(CC#Cc3ccc4c(c3)CN(C3CCC(=O)NC3=O)C4=O)CC2)C1 (stereo partly specified) | 
 | 6.3 | 11600 | 825 |  |  |  |  |  | Nc1ncnc2c1c(-c1ccc(Oc3ccccc3)cc1)nn2[C@@H]1CCCN(C(=O)CCC(=O)N2CCN(CC#Cc3ccc4c(c3)CN(C3CCC(=O)NC3=O)C4=O)CC2)C1 (stereo partly specified) | AUC(0-t) at 24 h [12]: 288 ng·h/mL; Cmax [13]: 224 ng/mL; IC50 (MM1.S): 1920 nM; Tmax [14]: 42 min; Cmax [15]: 84 ng/mL; IC50 (OCI-Ly10 [16]): 12.9 nM; AUC(0-inf) [17]: 404 ng·h/mL; Tmax [18]: 30 min; Activity [19]: Dde; IC50 (TMD8): 16.3 nM; Activity [20]: 37.2%; half-life [21]: 156 min; half-life [22]: 390 min; AUCt/dose [23]: 29 ng·h/mL/mg; IC50 (cells): 123 nM; AUC(0-t) at 48 h [24]: 374 ng·h/mL
